The IC50 is the concentration at which inhibition is half-maximal.

Like-named read-outs stand apart in the source and are kept apart here.

These results are taken from patent US20240041886A1, “METHODS FOR TREATING SPINOCEREBELLAR ATAXIA TYPE 3” (PTC Therapeutics, Inc., priority 2021, published 2024).

For assay [1], the system named is Endogenous Total ATXN3 (tATXN3) Protein. Put plainly: Endogenous Total ATXN3 (tATXN3) Protein Assay (MSD). In kind it is cell-based. The note with it: for IC50: average IC50, total ATXN3 protein in cell lysate after 48 h, 7-point concentration curve. The protocol: Meso Scale Discovery (MSD) 96-well or 384-well plates were coated overnight at 4° C. with Ataxin 3 mouse monoclonal antibody (Invitrogen, MA3-082) at a concentration of 0.5 μg/mL in PBS (30 μL per well). Plates were then washed three times with 300 μL wash buffer (0.05% TWEEN®-20, polyethylene glycol sorbitan monolaurate, in PBS) and blocked (Meso Scale Diagnostics, R93BA-1; 5% BSA in PBS) for 2 h at RT with rotational shaking and then washed three times with wash buffer.
(§1) Test compounds were serially diluted 3.16-fold in 100% DMSO to generate a 7-point concentration curve. Aliquots of 0.5 μL of diluted compounds were transferred to a 96-well flat bottom plate by a liquid handler. An aliquot of 0.5 μL DMSO was also transferred to separate wells and used as controls. Duplicate samples were set up for each compound concentration and for the DMSO control.
Cells were thawed and incubated in cell culture media (DMEM, 10% FBS, and 1% antibiotic cocktail) for 72 h. Cells were trypsinized, counted, and re-suspended to a concentration of 100,000 cells/mL in cell culture media. A 100 μL aliquot of the cell suspensions were plated at 10,000 cells per well in the compound containing 96 well microtiter plate and incubated for in a cell culture incubator (37° C., 5% CO2, 100% relative humidity). After 48 h, the medium was removed and 50-100 μL of lysis buffer (Meso Scale Diagnostics, R60TX-2) containing 1× halt protease inhibitor cocktail of (Thermo Scientific, Halt™ Protease Inhibitor Cocktail, 78430) per well was added to cells to provide a “cell lysate”. The plate was placed on a shaker at 4° C. for 30 minutes, then stored at −80° C.
Cell lysate samples (25 μL) were transferred to the antibody-coated MSD plate and incubated overnight at 4° C. After removal of the lysates, the plate was washed three times with wash buffer, and 25 μL of Ataxin 3 recombinant rabbit monoclonal antibody (Invitrogen, #702788) secondary antibody (diluted to 0.25 μg/mL in 0.05% TWEEN®-20 in blocking buffer) was added to each well and incubated with shaking for 1-2 h at room temperature. Following incubation with the secondary antibody, the wells were rinsed with wash buffer and then […] Anti Rabbit Antibody Goat SULFO-TAG Labeled (Meso Scale Diagnostics, R32AB-1) detecting antibody (diluted to 0.25 μg/mL in 0.05% TWEEN®-20 in blocking buffer) was added to each well and incubated with shaking for 1 h at room temperature. After rinsing three times with wash buffer, 150 μL of Read Buffer T with surfactant (tris-based buffer containing tripropylamine, Meso Scale Diagnostics, R92TC-1) were added to each empty well, and the plate was imaged on a SI 6000 imager (MSD) according to manufacturers' instructions provided for 96- or 384-well plates.

The next assay has as its system ATXN3 Pre-mRNA. Put plainly: RT-qPCR Assay to Quantify Exon 4 Skipping in ATXN3 Pre-mRNA in Cells. The class given is cell-based. The conditions noted are these: for IC50: percent exon 4 skipping by RT-qPCR after 24 h, 7-point concentration curve. The protocol: as §1
Cells were thawed and incubated in cell culture media (DMEM, 10% FBS, and 1% antibiotic cocktail) for 72 h. Cells were trypsinized, counted, and re-suspended to a concentration of 100,000 cells/mL in cell culture media. A 100 μL aliquot of the cell suspensions were plated at 10,000 cells per well in the compound containing 96 well microtiter plate and incubated for in a cell culture incubator (37° C., 5% CO2, 100% relative humidity).
After 24 h, media was aspirated from the cells and 50 μL of the RCL2 lysis buffer (10 mM Tris-HCL pH 7.4, 150 mM NaCl, 0.33% IGEPAL® CA-630) was added to each well and incubated at RT for 1 min. Chilled nuclease free water (50 μL per well) was added and the plates were immediately transferred on ice. After 1 min on ice, plates were frozen at −80° C. overnight.
Preparation of RT-qPCR Reaction Mixture:
An aliquot of 2 μL/well of the cell lysates was transferred using the liquid handler to the Armadillo 384-Well PCR plate containing 8 μL/well of the RT-qPCR reaction mixture that was prepared as detailed above. The plates were then sealed with MicroAmp™ Optical Adhesive Film followed by spinning down for 1 min and placed in the CFX384 thermocycler (BioRad).
The RT-qPCR was carried out at the following temperatures for the indicated time: • Step 1:48° C. (30 min) • Step 2: 95° C. (10 min) • Step 3: 95° C. (15 sec) • Step 4: 60° C. (1 min); then, repeated Steps 3 and 4 for a total of 40 cycles.
The percent exon 4 skipping was calculated for each dose of compound treatment using Equations 1 and 2.
Data were fit to a dose response curve and the IC50 was interpolated using XLfit® statistical and curve fitting package.
An IC50 value between >2.0 μM and ≤3.0 μM is indicated by one star (*). […] IC50 value between >0.5 μM and ≤1.0 μM is indicated by four stars (****). An IC50 value≤0.5 μM is indicated by five stars (*****).
In general terms: Quantitative PCR measures a nucleic acid by following its amplification.

As to `Clc1nc(NCc2ccncc2)c2cc[nH]c2n1` [Comparison Compound 1, 2-chloro-N-(pyridin-4-ylmethyl)-7H-pyrrolo[2,3-d]pyrimidin-4-amine, reference compound], in assay [1] (tested according to the assay of Example 1), the “ATXN3 Protein IC50” value is “inactive”. In addition, the “ATXN3 mRNA IC50” value in the assay with ATXN3 Pre-mRNA (tested according to the assay of Example 2) was “inactive”.
Regarding `C[C@H](N)Cc1[nH]c2nc(Cl)nc(NCc3ccco3)c2c1F` [Cpd 10, 6-[(2S)-2-aminopropyl]-2-chloro-5-fluoro-N-[(furan-2-yl)methyl]-7H-pyrrolo[2,3-d]pyrimidin-4-amine], the IC50 (in assay [1] (read-out: IC50); with ATXN3 Pre-mRNA (read-out: IC50)) was not above 500 nM in each case.
Take `CNCCc1[nH]c2nc(Cl)nc(NCc3ccco3)c2c1Cl` [Cpd 17, 2,5-dichloro-N-[(furan-2-yl)methyl]-6-[2-(methylamino)ethyl]-7H-pyrrolo[2,3-d]pyrimidin-4-amine]: the IC50 in assay [1] (read-out: IC50) lay in the range of 1000 to 1500 nM; in the assay on ATXN3 Pre-mRNA (read-out: IC50) it was 1500 to 2000 nM.
On to `C[C@H](N)Cc1c(Cl)c2c(NCc3ccco3)nc(Cl)nc2n1C` [Cpd 23, 6-[(2S)-2-aminopropyl]-2,5-dichloro-N-[(furan-2-yl)methyl]-7-methyl-7H-pyrrolo[2,3-d]pyrimidin-4-amine], for which the IC50 (in assay [1] (read-out: IC50); in the assay with ATXN3 Pre-mRNA (read-out: IC50)) was 500 to 1000 nM each time.
Take `C[C@H](N)Cc1c(F)c2c(NCc3ccco3)nc(Cl)nc2n1C` [Cpd 24, 6-[(2S)-2-aminopropyl]-2-chloro-5-fluoro-N-[(furan-2-yl)methyl]-7-methyl-7H-pyrrolo[2,3-d]pyrimidin-4-amine]: the half-inhibitory concentration (IC50) in assay [1] (read-out: IC50) was in the range of 500 to 1000 nM; with ATXN3 Pre-mRNA (read-out: IC50), 1000 to 1500 nM.
The matching figures for `Cc1c(C[C@H](C)N)n(C)c2nc(Cl)nc(NCc3ccco3)c12` [Cpd 35, 6-[(2S)-2-aminopropyl]-2-chloro-N-[(furan-2-yl)methyl]-5,7-dimethyl-7H-pyrrolo[2,3-d]pyrimidin-4-amine]: not above 500 nM and not above 500 nM.
The matching figures for `C[C@H](N)Cc1c(F)c2c(NCc3nccs3)nc(Cl)nc2n1C` [Cpd 38, 6-[(2S)-2-aminopropyl]-2-chloro-5-fluoro-7-methyl-N-[(1,3-thiazol-2-yl)methyl]-7H-pyrrolo[2,3-d]pyrimidin-4-amine]: 1000 to 1500 nM and 1000 to 1500 nM.
The matching figures for `C[C@H](N)Cc1c(F)c2c(NCc3ccncc3F)nc(Cl)nc2n1C` [Cpd 41, 6-[(2S)-2-aminopropyl]-2-chloro-5-fluoro-N-[(3-fluoropyridin-4-yl)methyl]-7-methyl-7H-pyrrolo[2,3-d]pyrimidin-4-amine]: 1000 to 1500 nM and 2000 to 3000 nM.
Turning to `C[C@H](N)Cc1c(F)c2c(NCc3ccncc3)nc(Cl)nc2n1C` [Cpd 43, 6-[(2S)-2-aminopropyl]-2-chloro-5-fluoro-7-methyl-N-[(pyridin-4-yl)methyl]-7H-pyrrolo[2,3-d]pyrimidin-4-amine], the 50% inhibitory concentration (IC50) in assay [1] (read-out: IC50) fell in the range of 1500 to 2000 nM; with ATXN3 Pre-mRNA (read-out: IC50), 2000 to 3000 nM.
As for `C[C@H](N)Cc1c(F)c2c(NCc3cncs3)nc(Cl)nc2n1C` [Cpd 48, 6-[(2S)-2-aminopropyl]-2-chloro-5-fluoro-7-methyl-N-[(1,3-thiazol-5-yl)methyl]-7H-pyrrolo[2,3-d]pyrimidin-4-amine], the IC50 result (in assay [1]; in the assay with ATXN3 Pre-mRNA) was “inactive” each time.
On to `C[C@H](N)Cc1c(F)c2c(NCc3cccs3)nc(Cl)nc2n1C` [Cpd 49, 6-[(2S)-2-aminopropyl]-2-chloro-5-fluoro-7-methyl-N-[(thiophen-2-yl)methyl]-7H-pyrrolo[2,3-d]pyrimidin-4-amine], for which the IC50 in assay [1] (read-out: IC50) is 1000 to 1500 nM; with ATXN3 Pre-mRNA (read-out: IC50) it was 500 to 1000 nM.
As to `C[C@H](N)Cc1c(F)c2c(NCc3ccccn3)nc(Cl)nc2n1C` [Cpd 55, 6-[(2S)-2-aminopropyl]-2-chloro-5-fluoro-7-methyl-N-[(pyridin-2-yl)methyl]-7H-pyrrolo[2,3-d]pyrimidin-4-amine], the IC50 entry (in assay [1]; in the assay on ATXN3 Pre-mRNA) was “inactive” throughout.
With `C[C@H](N)Cc1c(F)c2c(NCc3cccnc3)nc(Cl)nc2n1C` [Cpd 57, 6-[(2S)-2-aminopropyl]-2-chloro-5-fluoro-7-methyl-N-[(pyridin-3-yl)methyl]-7H-pyrrolo[2,3-d]pyrimidin-4-amine], the concentration for half-maximal inhibition (IC50) entry (in assay [1]; with ATXN3 Pre-mRNA) was “inactive” in each case.
